Values of other authors as cited in patent US11136251B2, “Compositions, methods, and devices for capturing phosphate from water” (REGENTS OF THE UNIVERSITY OF MINNESOTA, priority 2017, dated 2021).

For O=C([O-])CN(CCN(CC(=O)[O-])CC(=O)O)CCN(CC(=O)[O-])CC(=O)O.[Gd+3] [Gd-DTPA], the “selectivity for HPO4^2− over HCO3^− / bicarbonate binding” value is given as “two-fold”.
